Marks after values point to notes of the source that are not given here.
Experiments:
[1] = tested on: 2,985 participants free of prevalent diabetes at baseline; assay: Cardiovascular Health Study: plasma phospholipid fatty acids and incident diabetes mellitus (Cox proportional-hazards); type: in vivo, human; conditions: for RR of diabetes per SD: per each higher SD of the plasma phospholipid fatty acid, multivariable-adjusted (covariates as in Table 4)
Experimental: Plasma phospholipid fatty acids, anthropometry, blood lipids, inflammatory markers, and glucose-insulin levels were measured at baseline using standardized methods. Independent determinants of trans-palmitoleate and relationships of trans-palmitoleate with metabolic risk factors were investigated using multivariable-adjusted linear regression.
Multivariable model adjusted for age (years), gender (male/female), race (white/nonwhite), education (<high school, high school, some college, college graduate), enrollment site (four sites), smoking (never, former, current), body mass index (kg/m^2), waist circumference (cm), coronary heart disease (yes/no), physical activity (kcal/wk), alcohol use (six categories), and consumption of carbohydrate (% energy), protein (% energy), red meat (servings/week), whole-fat dairy foods (6 categories), low-fat dairy foods (five categories), and total energy (kcal/d).
Participants were followed by means of annual examinations for 10 years with interim and subsequent 6-month telephone contacts. Ives et al., 5 Ann. Epidemiol. […] At each visit, detailed medication information was obtained using medication inventories. At baseline, study interviewers visited participants in their homes and asked to see all prescription medications they had taken in the previous 2 weeks. At follow-up exams, participants brought to clinic all prescription medications taken in the previous 2 weeks. Drug names, doses, and frequencies were coded according to prescription medication Medispan files.
Relationships between phospholipid fatty acids were evaluated using Spearman correlation. Trans-palmitoleate levels were evaluated in sex-specific quintiles as indicator variables and continuously per SD difference. Independent demographic and lifestyle determinants of trans-palmitoleate were evaluated using multivariable-adjusted linear regression with trans-palmitoleate as the dependent variable. Multivariable-adjusted relationships of trans-palmitoleate with metabolic risk factors (transformed for normality as appropriate) were evaluated using linear regression with trans-palmitoleate as the independent variable. Quintiles were evaluated as ordinal variables to assess trend, to assess effect modification using the Wald test for a multiplicative interaction term, and to assess differences in baseline characteristics by means of linear or logistic regression. […] To minimize potential confounding, covariates were selected based on biologic interest, being well-established risk factors for metabolic risk, or associations with exposures/outcomes in the present cohort. […] Analyses were performed using Stata10.1 (College Station, Tex.), two-tailed alpha=0.05.

[2] = tested on: 3,736 U.S. men and women in the Cardiovascular Health Study; assay: Cardiovascular Health Study: multivariable-adjusted relationships of plasma phospholipid trans-palmitoleate with metabolic risk factors; type: in vivo, human; conditions: for BMI / Blood Pressure: Diastolic / Blood Pressure: Systolic / Fasting insulin / HOMA-IR / Total/HDL-C ratio / Waist circumference: adjusted mean
Experimental: The present inventors investigated relationships of circulating trans-palmitoleate levels with metabolic risk and incident diabetes mellitus among 3,736 U.S. men and women in the prospective Cardiovascular Health Study. Plasma phospholipid fatty acids, anthropometry, blood lipids, inflammatory markers, and glucose-insulin levels were measured at baseline using standardized methods. Independent determinants of trans-palmitoleate and relationships of trans-palmitoleate with metabolic risk factors were investigated using multivariable-adjusted linear regression. Relationships with incident diabetes (304 incident cases) were investigated using Cox proportional-hazards. Validation for metabolic risk factors was performed in a second independent cohort of 327 generally healthy women.
CHS design and recruitment have been described. Fried et al., 1 Ann. Epidemiol. 263 (1991). Briefly, 5,201 ambulatory, non-institutionalized adults age ≥65 were selected randomly and then enrolled in 1989 to 1990 from Medicare eligibility lists in 4 U.S. communities (Forsyth County, NC; Sacramento County, CA; Washington County, MD.; Allegheny County, PA); an additional 687 black participants were recruited similarly and enrolled in 1992. Among all eligible adults contacted, 57% agreed to enroll. Baseline in-clinic evaluations included standardized physical examination, diagnostic testing, laboratory evaluation, and questionnaires on health status, medical history, and cardiovascular and lifestyle risk factors. Each center's institutional review committee approved the study; all participants provided informed written consent.
Plasma phospholipid fatty acids were measured in 3,736 individuals using 1992 blood samples, considered to be the baseline for all present analyses. This included 3,238 participants randomly selected from individuals with available blood samples in 1992 and an additional 498 participants from a prior case-control study of myocardial infarction. All analyses accounted for this within-cohort sampling using inverse-probability-of-sampling weights. Plasma phospholipids were selected as an excellent marker of longer-term (4-8 week) circulating fatty acids, with similar responses as levels in erythrocyte membranes. Blood was drawn after a 12-hr fast, stored (−70° C.), and shipped on dry ice for long-term centralized storage (−80° C.). Under these conditions plasma phospholipid fatty acids are stable long-term, and in prior studies we observed no degradation, lipolysis, or oxidation after 10 years storage. Measurements were performed at the Fred Hutchinson Cancer Research Center, providing quantitative measurement of 45 fatty acids as percent of total fatty acids. Total lipids were extracted from plasma using methods of Folch, and phospholipids separated from neutral lipids by one-dimensional TLC. Fatty-acid-methyl-ester (FAME) samples were prepared by direct transesterification using methods of Lepage and separated using gas chromatography (Agilent5890 gas-chromatograph-FID-detector; Supelco fused-silica 100 m capillary column SP-2560; initial 160° C. 16 min, ramp 3.0° C./min to 240° C., hold 15 min). Identification, precision, and accuracy were continuously evaluated using model mixtures of known FAMEs and established in-house controls, with identification confirmed by GC-MS at USDA (Peoria, Ill.) or for trans-fats by silver-ion TLC. CVs were 2.5% for trans-palmitoleate and <3% for most fatty acids.
At study-clinic examinations, risk factors were measured by trained personnel. Fried et al., 1991. Anthropometric measures including weight, height, and waist circumference were collected using standard procedures and used to calculate body mass index (BMI). Fasting total cholesterol, HDL-C, and triglycerides were measured according to CDC methods. LDL-C was calculated according to Friedewald equation, excluding individuals with hypertriglyceridemia. […]

[3] = tested on: 327 generally healthy women in the Nurses' Health Study; assay: Nurses' Health Study validation cohort: erythrocyte and plasma trans-palmitoleate versus metabolic risk factors; type: in vivo, human; conditions: multivariable-adjusted level across quartiles
Experimental: For independent validation, we evaluated the association of trans-palmitoleate measured in erythrocyte membranes and plasma (Sun et al., 88 Am. J. Clin. Nutr, 216 (2008)), with metabolic risk factors in a cohort of 327 generally healthy women, age=60.4±6.1 years, in the Nurses' Health Study (NHS). Relationships were evaluated for HDL-C, total:HDL-C, interleukin-6, CRP, and hemoglobinAlc. Because many samples were nonfasting, triglycerides and LDL-C were not evaluated; the number of subjects was too small to evaluate incident diabetes. Multivariable models were adjusted for age, smoking, physical activity, alcohol intake, family history, hypertension, hormone use, fasting status, and dietary carbohydrate, protein, polyunsaturated fats, saturated fat, dietary fiber, and total energy. We also evaluated correlations of trans-palmitoleate levels in plasma vs. erythrocytes in NHS (Spearman correlation[r]=0.74); and in phospholipids vs. triglycerides in CHS (n=104; r=0.54).

C2C12 myotubes = assay: Glucose uptake assay in differentiated C2C12 myotubes; type: cell-based; conditions: 0.25 mM for 6 hr, values only in FIG. 1
Experimental: FIG. 1 is a bar graph showing data from differentiated C2C12 myotubes that were incubated with control medium, or medium with 0.25 mM palmitate (C16) or trans-16:1n7-palmitoleate for 6 hours; glucose uptake was assayed as described herein.
C2C12 myoblasts were maintained in 20% fetal bovine serum. To differentiate the myoblasts, cells were plated in 12-well plates coated with 0.2% gelatin and medium changed to 2% horse serum upon confluence. Five days post-differentiation, C2C12 myotubes were incubated in serum-free medium with 0.5% bovine serum albumin (Sigma) and indicated fatty acids at a final concentration of 0.25 mM for 6 hr. Glucose uptake assay was performed as described previously, with modifications. Somwar et al., 276 J. Biol. Chem. 46079 (2001). Briefly, cells were washed twice with 500 μl warm Krebs-Ringer-Hepes (KRH) buffer and 1 ml of KRH buffer was added into each wells. ^3H 2-D-Glucose (0.5 μCi/well) was added and cells were kept in incubator for 10 min. Medium was then removed and cells washed twice with ice-cold KRH buffer. Cells were plated on ice and lysed in 500 μl 0.1% SDS. Aliquots of 400 μl cell lysate were used for scintillation counting and protein assay quantification assay was performed on the rest of cell lysate.

[4] = tested on: OB/OB, wild-type, and high-fat diet mice; assay: Tolerability of oral gavage administration in mice; type: in vivo; conditions: 200 mg/kg/day to 2 g/kg/day for 5 weeks in PEG 300
Experimental: Trans-palmitoleate was obtained in pure, powdered form from Nu-Check Prep, Inc. (Elysian, Minn.) and dissolved in a polyethylene glycol vehicle (PEG 300). Mice were administered, by gavage, trans-palmitoleate in doses ranging from 200 mg/kg/day to 2 g/kg/day for 5 weeks. […] In OB/OB mice, after 2 weeks of treatment, plasma lipid analysis was determined from samples taken after 6 hr of fasting, 30 hr after last trans-palmiloleate administration. Additionally, research diets comprising mouse chow at 2% trans-palmitoleate % total food weight can be formulated.

[5] = across quintiles, further adjusted for adiposity
[6] = across quintiles, multivariable-adjusted
[7] = quintile I (median 0.13% of total fatty acids)
[8] = quintile II (median 0.16% of total fatty acids)
[9] = quintile III (median 0.18% of total fatty acids)
[10] = quintile IV (median 0.21% of total fatty acids)
[11] = quintile V (median 0.25% of total fatty acids)
[12] = erythrocyte trans-palmitoleate, first value
[13] = erythrocyte trans-palmitoleate, second value
[14] = plasma trans-palmitoleate, first value
[15] = plasma trans-palmitoleate, second value

## CCCCCC/C=C/CCCCCCCCCC(=O)O [Vaccenic acid, vaccenic acid, reference compound]
[1]
  RR of diabetes per SD: 0.89

## CCCCCC/C=C/CCCCCCCC(=O)O [trans-palmitoleate, trans-C16:1n7-palmitoleic acid]
[2]; P=0.006, limited to lower levels in the lowest quintile only
  association with fibrinogen: higher fibrinogen
[2]; [5]
  difference in CRP across quintiles: −13.8%
  difference in HDL-C across quintiles: +1.9%
  difference in fasting insulin across quintiles: −13.3%
  difference in insulin resistance assessed by HOMA-IR across quintiles: −16.7%
  difference in total:HDL-C ratio across quintiles: −4.7%
  difference in triglycerides across quintiles: −19.0%
[2]; [6]
  difference in BMI across quintiles: −1.8%
  difference in waist circumference across quintiles: −1.8%
[2]; multivariable-adjusted
  association with LDL-C, fasting glucose, or BP: not associated
[2]; [7]
  BMI: 26.7 kg/m^2
  Blood Pressure: Diastolic: 71 mmHg
  Blood Pressure: Systolic: 137 mmHg
  Fasting insulin: 11.3 mU/l
  HOMA-IR: 3.0 units
  Total/HDL-C ratio: 4.3
  Waist circumference: 97.7 cm
[2]; [8]
  BMI: 27.0 kg/m^2
  Blood Pressure: Diastolic: 71 mmHg
  Blood Pressure: Systolic: 136 mmHg
  Fasting insulin: 11.0 mU/l
  HOMA-IR: 2.9 units
  Total/HDL-C ratio: 4.3
  Waist circumference: 98.4 cm
[2]; [9]
  BMI: 26.8 kg/m^2
  Blood Pressure: Diastolic: 70 mmHg
  Blood Pressure: Systolic: 136 mmHg
  Fasting insulin: 10.7 mU/l
  HOMA-IR: 2.8* units
  Total/HDL-C ratio: 4.2
  Waist circumference: 97.2 cm
[2]; [10]
  BMI: 26.9 kg/m^2
  Blood Pressure: Diastolic: 71 mmHg
  Blood Pressure: Systolic: 136 mmHg
  Fasting insulin: 10.2† mU/l
  HOMA-IR: 2.7† units
  Total/HDL-C ratio: 4.1†
  Waist circumference: 97.4 cm
[2]; [11]
  BMI: 26.2 kg/m^2
  Blood Pressure: Diastolic: 71 mmHg
  Blood Pressure: Systolic: 136 mmHg
  Fasting insulin: 9.8‡ mU/l
  HOMA-IR: 2.5‡ units
  Total/HDL-C ratio: 4.1†
  Waist circumference: 96.0* cm
[1]; additional adjustment for levels of both 15:0 and 17:0
  extreme-quintile RR of new-onset diabetes: 0.39
[1]; additional adjustment for vaccenic acid (trans-18:1n-7)
  extreme-quintile RR of incident diabetes: 0.43
[1]; men
  extreme-quintile RR of incident diabetes: 0.29
[1]
  RR of diabetes per SD: 0.72
[1]; per each higher SD of trans-palmitoleate
  multivariable-adjusted RR of diabetes lower per each higher SD: 28%
[1]; quintile I, 5,595 person-years of follow-up
  No. of incident cases of diabetes mellitus: 93
[1]; quintile II vs quintile I
  Hazard ratio (RR) of incident diabetes, age- and sex-adjusted: 0.84
  Hazard ratio (RR) of incident diabetes, multivariate-adjusted: 0.79
[1]; quintile II, 5,435 person-years of follow-up
  No. of incident cases of diabetes mellitus: 68
[1]; quintile III vs quintile I
  Hazard ratio (RR) of incident diabetes, age- and sex-adjusted: 0.88
  Hazard ratio (RR) of incident diabetes, multivariate-adjusted: 0.89
[1]; quintile III, 5,556 person-years of follow-up
  No. of incident cases of diabetes mellitus: 59
[1]; quintile IV vs quintile I
  Hazard ratio (RR) of incident diabetes, age- and sex-adjusted: 0.44
  Hazard ratio (RR) of incident diabetes, multivariate-adjusted: 0.41
[1]; quintile IV, 5,811 person-years of follow-up
  No. of incident cases of diabetes mellitus: 46
[1]; quintile V vs quintile I
  Hazard ratio (RR) of incident diabetes, age- and sex-adjusted: 0.36
  Hazard ratio (RR) of incident diabetes, multivariate-adjusted: 0.38
[1]; quintile V, 5,469 person-years of follow-up
  No. of incident cases of diabetes mellitus: 38
[1]; women
  extreme-quintile RR of incident diabetes: 0.41
[3]; [12]
  CRP: 3.3 mg/L
  hemoglobinAlc: 5.92
  interleukin-6 (IL-6): 2.3 pg/mL
  total:HDL-C: 4.21
[3]; [13]
  CRP: 2.1 mg/L
  hemoglobinAlc: 5.66
  interleukin-6 (IL-6): 1.8 pg/mL
  total:HDL-C: 3.87
[3]; [14]
  HDL-C: 56.5 mg/dL
  hemoglobinAlc: 5.88%
  total:HDL-C: 4.28
[3]; [15]
  HDL-C: 61.7 mg/dL
  hemoglobinAlc: 5.64%
  total:HDL-C: 3.63
C2C12 myotubes
  glucose uptake: Positive Glucose Uptake
[4]
  tolerability: well-tolerated, with no ill effects observed

Source: patent publication US9987243B2, “Use of trans-palmitoleate in identifying and treating metabolic disease” (Trustees of Tufts College, priority 2010, dated 2018)
